Data published in paper PMC6967409 (Frontiers in Chemistry, 2020).
Where “and” joins values, the source holds several entries; their conditions need not be identical. Equal entries are not always repeated. Where two headings read alike, the source gives them in different places.

Key:
[1] = system: P. falciparum NF54 late stage gametocytes (>90% stage IV and V); test: Gametocytocidal luciferase reporter assay, late stage, 72 h; assay type: cell-based, Plasmodium falciparum; settings: Plasmodium falciparum, NF54, 72 h, read-out: Late Stage (LG, Luc 72 h) IC50, >90% stage IV and V gametocytes, ±SEM
Description: (§1) P. falciparum parasites (NF54, K1, and W2) were cultured in vitro in human erythrocytes (A^+ or O^+) under 90% N2, 5% CO2, and 5% O2 atmospheric conditions with supplemented RPMI 1640 media (Sigma Aldrich) containing Albumax II, as previously described (Verlinden et al., [2011]). This study was carried out according the guidelines set out by the Faculty of Health Sciences Ethical Committee, Ethical Clearance no. EC-120821/077. The protocol was approved by the Faculty of Health sciences ethical committee at the University of Pretoria. All subjects gave written informed consent in accordance with the Declaration of Helsinki. Parasite proliferation was monitored microscopically using Giemsa stained smears. Synchronized ring stage parasites (>95%) were obtained using a 5% D-sorbitol (Sigma Aldrich) treatment. […] Gametocyte cultures were kept stationary under 90% N2, 5% CO2, and 5% O2 atmospheric conditions at 37°C and treated with 50 mM N-acetyl-glucosamine (NAG) to eliminate residual invasion of asexual parasites.
(§2) Gametocytocidal activity was determined using the luciferase reporter line (Reader et al., [2015]) to derive dose responses with two-fold serial drug dilutions for 48 h against early stage gametocytes (day 5 post-induction population, >90% stage I–III) and 10-fold serial drug dilutions for 72 h against late stage gametocytes (day 10 post-induction population, >90% late stage IV–V) (2% gametocytemia, 2% hematocrit), at 37°C under 90% N2, 5% CO2, and 5% O2 atmospheric conditions.

Cytotoxicity, MTT assay = assay type: cell-based; settings: Chinese hamster, CHO cells
Description: (§3) Cytotoxicity (EC50) was determined against Chinese hamster ovarian (CHO) using a 3-(4,5-dimethylthiazol-2-yl)-2,5-diphenyltetrazolium bromide (MTT) assay and hepatocellular carcinoma cells (HepG2) using the Cytoselect LDH cytotoxicity assay kit (Cell Biolabs).

P. falciparum NF54 [2] = test: Metabolic (parasite LDH) assay, asexual ring stage parasites, 48 h; assay type: cell-based; settings: Plasmodium falciparum, pLDH, CQ-sensitive NF54
Description: as §1
(§4) Working solutions of the derivatives were prepared from a 10 mM stock solution in 100% DMSO in supplemented RPMI 1640 media containing Albumax II with a final DMSO concentration of <0.1%, previously determined as being non-toxic to intraerythrocytic asexual parasites and gametocytes. Dose responses were assayed using a two-fold serial drug dilution on in vitro >95% ring stage intraerythrocytic P. falciparum parasites at 37°C under 90% N2, 5% CO2, and 5% O2 atmospheric conditions, detecting both parasite lactate dehydrogenase (pLDH) activity as a metabolic marker following a 48 h drug exposure (1.5–2% parasitemia and 2% hematocrit; Makler et al., [1993]) and SYBR Green I fluorescence as proliferative marker following a 96 h drug exposure (1% parasitemia and 1% hematocrit). […] Data analysis was performed using GraphPad Prism 7.

[3] = Cytotoxicity, Cytoselect LDH cytotoxicity assay kit; assay type: cell-based; settings: human, HepG2 cells
Description: as §3

P. falciparum W2 = test: Proliferative (SYBR Green I) assay, asexual parasites, 96 h; assay type: cell-based; settings: Plasmodium falciparum, ±SEM
Description: as §1, §4

P. falciparum NF54 [4] = test: as above; assay type: cell-based; settings: Plasmodium falciparum, ±SEM
Description: as §1, §4

P. falciparum K1 = test: as above; assay type: cell-based; settings: Plasmodium falciparum, ±SEM
Description: as §1, §4

[5] = system: P. falciparum NF54 early stage gametocytes (>90% stage I–III); test: Gametocytocidal luciferase reporter assay, early stage, 48 h; assay type: cell-based; settings: Plasmodium falciparum, NF54, 48 h, read-out: Early Stage (EG, Luc 48 h) IC50
Description: as §1, §2

P. falciparum Dd2 = test: Metabolic (parasite LDH) assay, asexual ring stage parasites, 48 h; assay type: cell-based; settings: Plasmodium falciparum, pLDH, Dd2 CQ, pyrimethamine resistant
Description: as §4

[6] = system: asexual P. falciparum NF54, Dd2, K1, W2; test: Asexual P. falciparum, metabolic (pLDH) and proliferative (SYBR Green I) platforms; assay type: cell-based; settings: Plasmodium falciparum; drug-sensitive and -resistant parasites, both assay platforms; read-out: IC50, asexual P. falciparum metabolic activity and proliferation
Description: Data analysis was performed using GraphPad Prism 7.
The in vitro activities of the new derivatives were determined against drug sensitive NF54 and multi-drug resistant Dd2, K1, and W2 intraerythrocytic asexual P. falciparum malaria parasite strains using both a metabolic (parasite LDH) and a proliferative (SYBR Green I fluorescence) assay readout (Table 1).

HepG2 cells = test: HepG2 cytotoxicity bioluminescence assay (CellTiterGlo, ATP); assay type: cell-based, human; settings: two biological replicates listed in one cell
Description: (§5) Briefly, HepG2-CD81 cells were seeded into 1,536 well plates containing 50 nL of test and control compounds diluted into DMSO. […] Next, 2 μL of luciferin reagent (Promega BrightGlo) was added to each well and luciferase activity was detected using a Perkin Elmer Envision plate reader. […] In parallel, plates were processed without sporozoites for HepG2 toxicity measurements.
(§6) In continuation of the transmission blocking theme, it is important to establish activities against liver stage parasites. […] This assay uses ultra-high-throughput screening methods optimized for a 1536-well format and a HepG2 human hepatoma cell line. […] To establish selectivity of the compounds for the parasite in the liver stage of infection, cytotoxicity was determined by measuring bioluminescence from the reaction between free ATP of compound-treated, uninfected hepatocytes and a luciferase reporter system.

[7] = as above; assay type: cell-based, human; settings: human, uninfected HepG2-CD81 cells
Description: as §5, §6

[8] = system: P. berghei ANKA GFP-Luc-SMcon sporozoites; test: P. berghei-luciferase liver stage bioluminescence assay (causal prophylactic mode) in HepG2-CD81 cells; assay type: cell-based, Plasmodium berghei
Description: as §5, §6

[9] = >90% stage I–III gametocytes, ±SEM

For `C[C@H]1[C@H](N2CCN(S(=O)(=O)c3ccc(F)cc3)CC2)O[C@@H]2O[C@@]3(C)CC[C@H]4[C@H](C)CC[C@@H]1[C@@]24OO3` [Compound 19], which IC50 [1] is on record?
The IC50 was 0.7 ± 0.5 nM.

What about the EC50 (Cytotoxicity, MTT assay) of the same compound?
Its EC50 is > 196000 nM.

And the IC50 (P. falciparum NF54 [2])?
Its IC50 is 1.65 ± 0.04 nM.

And the EC50 [3]?
Its EC50 is 558 nM.

And the IC50 (P. falciparum W2)?
The IC50 was 4.8 ± 0.5 nM.

And the IC50 (P. falciparum NF54 [4])?
The IC50 was 3.4 ± 0.4 nM.

And the IC50 (P. falciparum K1)?
The IC50 was 4.2 ± 0.1 nM.

And the IC50 [5, 9]?
Its IC50 is 12.1 ± 4.5 nM.

And the IC50 (P. falciparum Dd2)?
Its IC50 is 9.8 ± 0.4 nM.

Which IC50 [6] does the source give for `CCCCCCNC(=O)N1CCN([C@@H]2O[C@@H]3O[C@@]4(C)CC[C@H]5[C@H](C)CC[C@@H]([C@H]2C)[C@@]35OO4)CC1` [Compound 20] here?
Its IC50 is 50 to 100 nM.

With `CCCCCCCCCCCCCCCCNC(=O)N1CCN([C@@H]2O[C@@H]3O[C@@]4(C)CC[C@H]5[C@H](C)CC[C@@H]([C@H]2C)[C@@]35OO4)CC1` [Compound 21] as the compound, how does the IC50 [6] read?
The IC50 was 50 to 100 nM.

Which results are given for `C[C@H]1[C@H](N2CCN(C(=O)Nc3ccc(C(C)(C)C)cc3)CC2)O[C@@H]2O[C@@]3(C)CC[C@H]4[C@H](C)CC[C@@H]1[C@@]24OO3` [Compound 22]?
IC50 [1]: 17.7 ± 15.1 nM; EC50 (Cytotoxicity, MTT assay): 2920 nM; IC50 (P. falciparum NF54 [2]): 2.11 ± 0.53 nM; EC50 [3]: 616 nM; IC50 (P. falciparum W2): 1.48 ± 0.14 nM; IC50 (P. falciparum NF54 [4]): 1.87 ± 0.12 nM; IC50 (P. falciparum K1): 1.12 ± 0.08 nM; IC50 [5]: 45.9 ± 9.9 nM; IC50 (P. falciparum Dd2): 24.7 ± 2.79 nM

Which IC50 [6] does the source give for `CCCCCCCCCCCCCCCC(=O)N1CCN([C@@H]2O[C@@H]3O[C@@]4(C)CC[C@H]5[C@H](C)CC[C@@H]([C@H]2C)[C@@]35OO4)CC1` [Compound 26] here?
The IC50 was 50 to 100 nM.

With `C[C@H]1[C@H](NS(=O)(=O)N2CCN(c3ccccn3)CC2)O[C@@H]2O[C@@]3(C)CC[C@H]4[C@H](C)CC[C@@H]1[C@@]24OO3` [Compound 29] as the compound, how does the IC50 [1] read?
The IC50 was 0.04 ± 0.03 nM.

And the EC50 (Cytotoxicity, MTT assay)?
Its EC50 is > 197000 nM.

And the IC50 (P. falciparum NF54 [2])?
The IC50 was 1.68 ± 0.18 nM.

And the EC50 [3]?
Its EC50 is 173 nM.

And the IC50 (P. falciparum W2)?
Its IC50 is 3.3 ± 0.7 nM.

And the IC50 (P. falciparum NF54 [4])?
The IC50 was 4.3 ± 0.4 nM.

What about the IC50 (P. falciparum K1) of the same compound?
The IC50 was 4.9 ± 0.9 nM.

And the IC50 [5, 9]?
The IC50 was 24.7 ± 4.9 nM.

And the IC50 (P. falciparum Dd2)?
Its IC50 is 6.4 ± 1.4 nM.

Which IC50 [1] does the source give for `C[C@H]1[C@H](NS(=O)(=O)N2CCN(c3ccc(C(F)(F)F)cn3)CC2)O[C@@H]2O[C@@]3(C)CC[C@H]4[C@H](C)CC[C@@H]1[C@@]24OO3` [Compound 30] here?
Its IC50 is 4 ± 3.8 nM.

What about the EC50 (Cytotoxicity, MTT assay) of the same compound?
The EC50 was 34300 nM.

And the IC50 (P. falciparum NF54 [2])?
Its IC50 is 1.8 ± 0.6 nM.

And the EC50 [3]?
The EC50 was 311 nM.

What about the IC50 (P. falciparum W2) of the same compound?
The IC50 was 3 ± 1 nM.

What about the IC50 (P. falciparum NF54 [4]) of the same compound?
The IC50 was 3.3 ± 0.3 nM.

And the IC50 (P. falciparum K1)?
The IC50 was 4.3 ± 1.3 nM.

And the IC50 [5, 9]?
The IC50 was 19.3 ± 6.2 nM.

And the IC50 (P. falciparum Dd2)?
Its IC50 is 9.64 ± 0.6 nM.

For `COc1ccc(C[C@H](N)C(=O)N[C@H]2[C@@H](O)[C@H](n3cnc4c(N(C)C)ncnc43)O[C@@H]2CO)cc1` [Puromycin], which “HepG2 Cytotoxicity Bioluminescence Assay: Maximum measured (%)” value (HepG2 cells) is on record?
The value was 102.0% and 105.0%.

And the IC50 (HepG2 cells)?
The IC50 was 120 nM.

What about the IC50 at 72 h ([7]; two biological replicates listed in one cell) of the same compound?
Its IC50 at 72 h is 114 nM.

What about the EC50 at 72 h ([7]; uninfected HepG2, ATP bioluminescence) of the same compound?
Its EC50 at 72 h is 117 nM.

What about the Emax ([8]; Plasmodium berghei, 48 h, two biological replicates listed in one cell, read-out: P.berghei-Luciferase Liver Stage Bioluminescence Assay: Maximum measured (%)) of the same compound?
The Emax was 107%.

What about the IC50 ([8]; Plasmodium berghei, HepG2, 48 h, liver stage, HepG2 host cells, luciferase after 48 h, ±SD, read-out: P. berghei sporozoites IC50) of the same compound?
Its IC50 is 22.7 ± 4.53 nM.

What about the IC50 ([8]; Plasmodium berghei, two biological replicates listed in one cell, read-out: P.berghei-Luciferase Liver Stage Bioluminescence Assay: IC50) of the same compound?
Its IC50 is 19.5 nM.

And the inhibition at 5 µM ([8]; Plasmodium berghei, Conc. 5 μM, read-out: P. berghei sporozoites Maximum inhibition %)?
Its inhibition at 5 µM is 110 ± 4.24%.

What about the IC50 ([8]; two biological replicates listed in one cell, read-out: P.berghei-Luciferase Liver Stage Bioluminescence Assay: IC50) of the same compound?
Its IC50 is 25.9 nM.
